Source: patent EP0602242A1, “BENZISOXAZOLE COMPOUND AND USE THEREOF” (priority 1991, dated 1993)
Where a name gives a salt, the structure may show the parent alone. Read-outs that look alike come from different tables or passages of the source.

How the values were obtained:
[1] = biological target: T1, acetylcholinesterase (AChE) (Rattus norvegicus, UniProt P37136); experiment: biochemical; parameters: species or system male Wistar rat
T1 construct: An enzyme solution was a homogenized solution of forebrain from male Wistar rat; from tissue; host or cells: forebrain of male Wistar rat (homogenate)
T1 sequence (P37136 32-614): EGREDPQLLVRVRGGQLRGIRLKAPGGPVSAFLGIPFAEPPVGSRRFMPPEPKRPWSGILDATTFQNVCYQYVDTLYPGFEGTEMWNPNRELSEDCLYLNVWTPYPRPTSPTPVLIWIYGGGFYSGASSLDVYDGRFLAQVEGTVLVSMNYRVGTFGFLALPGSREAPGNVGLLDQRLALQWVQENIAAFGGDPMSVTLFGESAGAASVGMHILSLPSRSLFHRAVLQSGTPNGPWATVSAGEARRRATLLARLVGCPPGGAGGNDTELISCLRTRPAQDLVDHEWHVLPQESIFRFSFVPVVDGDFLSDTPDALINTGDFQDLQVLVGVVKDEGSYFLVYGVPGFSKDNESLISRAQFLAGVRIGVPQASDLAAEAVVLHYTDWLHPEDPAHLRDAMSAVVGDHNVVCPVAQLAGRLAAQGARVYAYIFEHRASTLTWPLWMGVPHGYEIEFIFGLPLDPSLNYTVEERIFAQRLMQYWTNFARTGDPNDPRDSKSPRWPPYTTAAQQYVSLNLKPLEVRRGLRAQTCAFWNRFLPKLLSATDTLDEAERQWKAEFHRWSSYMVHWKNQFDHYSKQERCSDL
Experimental: An enzyme solution was a homogenized solution of forebrain from male Wistar rat in 0.1M phosphate buffer (pH 8.0). Acetylthiocholine was used as a substrate for acetylcholinesterase (AChE) and the density of thionitrobenzoate (yellow) produced by the following reaction was measured with a spectrophotometer (OD₄₁₂). [drawing 27] Thiocholine + dithiobisnitrobenzoate → thionitrobenzoate Test compounds were dissolved in dimethylsulfoxide and diluted with 0.1M phosphate buffer (pH 8.0).

[2] = biological target: acetylcholinesterase (AChE) derived from human (Homo sapiens, UniProt P22303); experiment: biochemical
Chain of acetylcholinesterase (AChE) derived from human (P22303 32-614): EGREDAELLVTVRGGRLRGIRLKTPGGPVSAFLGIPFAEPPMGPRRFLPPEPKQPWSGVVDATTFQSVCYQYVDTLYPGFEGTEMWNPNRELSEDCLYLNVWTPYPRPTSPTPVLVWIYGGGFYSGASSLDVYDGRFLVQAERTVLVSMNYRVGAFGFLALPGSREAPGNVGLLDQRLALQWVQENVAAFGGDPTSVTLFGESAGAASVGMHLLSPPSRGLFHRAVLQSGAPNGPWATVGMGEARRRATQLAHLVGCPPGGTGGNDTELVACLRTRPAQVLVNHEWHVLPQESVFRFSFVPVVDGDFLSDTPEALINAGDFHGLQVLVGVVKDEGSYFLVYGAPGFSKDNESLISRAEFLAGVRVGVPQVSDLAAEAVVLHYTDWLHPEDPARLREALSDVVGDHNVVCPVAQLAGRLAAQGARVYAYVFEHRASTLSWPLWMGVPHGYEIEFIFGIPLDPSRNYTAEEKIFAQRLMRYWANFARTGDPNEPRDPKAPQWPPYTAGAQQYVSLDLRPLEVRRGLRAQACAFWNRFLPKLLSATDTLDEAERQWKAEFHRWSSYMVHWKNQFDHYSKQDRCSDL

[3] = biological target: butyrylcholinesterase (BChE) derived from human (Homo sapiens, UniProt P06276); experiment: biochemical
Chain of butyrylcholinesterase (BChE) derived from human (P06276 29-602): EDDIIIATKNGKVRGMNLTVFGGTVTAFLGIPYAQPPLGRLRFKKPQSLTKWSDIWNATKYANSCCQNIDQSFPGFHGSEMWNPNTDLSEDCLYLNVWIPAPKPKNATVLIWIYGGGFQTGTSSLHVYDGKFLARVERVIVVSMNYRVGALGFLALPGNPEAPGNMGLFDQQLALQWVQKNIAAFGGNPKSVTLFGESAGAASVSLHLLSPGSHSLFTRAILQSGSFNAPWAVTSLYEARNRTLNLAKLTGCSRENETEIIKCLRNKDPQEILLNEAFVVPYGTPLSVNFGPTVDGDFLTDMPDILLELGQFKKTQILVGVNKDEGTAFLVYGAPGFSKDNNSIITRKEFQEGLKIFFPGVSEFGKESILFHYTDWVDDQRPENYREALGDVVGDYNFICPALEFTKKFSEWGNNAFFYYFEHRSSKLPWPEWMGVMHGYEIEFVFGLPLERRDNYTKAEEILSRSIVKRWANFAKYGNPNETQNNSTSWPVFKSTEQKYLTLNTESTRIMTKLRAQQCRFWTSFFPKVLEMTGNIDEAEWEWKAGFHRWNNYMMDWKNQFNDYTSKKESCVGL

[4] = biological target: sigma receptor; experiment: Sigma receptor binding test (3H-DTG, rat cerebral cortex membrane fractions); parameters: species or system Male Wistar rats; settings: rat cerebral cortex membranes, 3H-DTG 2.5 nM, 25°C 60 minutes, Ki = IC50/[1 + (L/Kd)], Kd 26.3 nM; read-out: Sigma receptor binding assay ³H-DTG (Ki)
Experimental: Male Wistar rats weighing 250-300 g were decapitated and the brains were removed. Cerebral cortex was dissected on ice, and the brain tissues were homogenized in 20 volumes of Tris-HCl buffer (pH 8.0, 25°C) containing 320 mM sucrose. The homogenate was centrifuged at 1000 × g for 10 minutes. The obtained supernatant was centrifuged at 31,000 × g for 15 minutes and the pellets obtained were suspended in the same Tris-HCl buffer, followed by incubation at 37°C for 10 minutes. Centrifugation was repeated twice and the final pellets were suspended in 50 mM Tris-HCl buffer (pH 8.0, 25°C) and used as membrane fractions.
A binding inhibitory test was conducted by adding [³H]-1,3-di-o-tolylguanidine (³H-DTG, 39.4 Ci/mmol, New England Nuclear, final concentration 2.5 nM) and respective test compounds (5 different concentrations) to the membrane fractions (0.9 ml, 0.5-0.8 mg) and then the above-mentioned buffer to the final volume of 1 ml. The mixtures were incubated at 25°C for 60 minutes. The reaction mixture was suction-filtered through Whatman GF/B filters which had been treated previously with 0.1% polyethyleneimine and washed three times with 3 ml of 10 mM Tris-HCl buffer (pH 7.7, 25°C). Then, the β rays of the bound ³H-DTG on the filter were measured by a liquid scintillation counter.
IC₅₀ values were determined graphically and Ki values were calculated by the numerical equation Ki = IC₅₀/[1 + (L/Kd)] [formula] wherein L is a concentration of radioligand and Kd (26.3 nM) is a dissociation constant between tritiated ligand and the receptor.

[5] = Acute toxicity after oral administration; settings: rat, in vivo; oral administration to rats; read-out: acute toxicity values (LD₅₀)
Experimental: The acute toxicity values (LD₅₀) of the compounds of the present invention 6 and 41 after oral administration to rats were not less than 50 mg/kg.

[6] = homogenized forebrain of male Wistar rat, substrate acetylthiocholine, 0.1M phosphate buffer pH 8.0, read-out: Acetylcholinesterase inhibition IC₅₀
[7] = AChE derived from human, substrate acetylthiocholine, read-out: IC₅₀ AChE
[8] = IC50 for human BChE divided by IC50 for human AChE
[9] = BChE derived from human, substrate butyrylthiocholine, read-out: IC₅₀ BChE

Row | SMILES | IC50 [2, 7] [nM] | Selectivity IC₅₀ (BChE)/IC₅₀ (AChE) [2, 8] | Ki [4] [nM] | also measured
1 | COc1ccc2c(CCC3CCN(Cc4ccccc4)CC3)noc2c1OC [Example 19, 3-(2-(1-benzyl-4-piperidyl)ethyl)-6,7-dimethoxy-1,2-benzisoxazole] | 1.8 | 4,200 |  | IC50 [1, 6]: 0.38 nM; IC50 [3, 9]: 7500 nM
2 | Cc1ccc2c(=O)n(CCC3CCN(CC4CCCCC4)CC3)oc2c1 [Example 227, 2-(2-(1-Cyclohexylmethyl-4-piperidyl)ethyl)-6-methyl-1,2-benzisoxazol-3(2H)-one fumarate] |  |  | 0.55 | 
3 | Cc1ccc2c(OCCC3CCN(CC4CCCCC4)CC3)noc2c1 [Example 164, 3-(2-(1-Cyclohexylmethyl-4-piperidyl)ethyloxy)-6-methyl-1,2-benzisoxazole fumarate] |  |  | 0.37 | 
4 | O=C(Nc1ccc2c(=O)n(CCCC3CCN(Cc4ccccc4)CC3)oc2c1)c1ccccc1 [Example 198, 6-benzoylamino-2-(3-(1-benzyl-4-piperidyl)propyl)-1,2-benzisoxazol-3(2H)-one] | 0.94 | 3,800 |  | IC50 [3, 9]: 3600 nM
5 | Cc1ccc2onc(OCCC3CCN(CC4CCCCC4)CC3)c2c1 [Example 160, 3-(2-(1-Cyclohexylmethyl-4-piperidyl)ethyloxy)-5-methyl-1,2-benzisoxazole fumarate] |  |  | 0.23 | 
6 | O=C(Nc1ccc2c(=O)n(CCC3CCN(Cc4ccccc4)CC3)oc2c1)c1ccccc1 [Example 252, 6-Benzoylamino-2-(2-(1-benzyl-4-piperidyl)ethyl)-1,2-benzisoxazol-3(2H)-one] |  |  |  | IC50 [1, 6]: 0.73 nM
7 | CN(C)C(=S)Oc1ccc2c(CCC3CCN(Cc4ccccc4)CC3)noc2c1 [Example 11] |  | >20,000 |  | IC50 [2]: 0.5 nM; IC50 [3]: > 10000 nM
8 | Cc1ccc2on(CCC3CCN(CC4CCCCC4)CC3)c(=O)c2c1 [Example 231, 2-(2-(1-Cyclohexylmethyl-4-piperidyl)ethyl)-5-methyl-1,2-benzisoxazol-3(2H)-one fumarate] |  |  | 0.42 | 
9 | CC(=O)N(C)c1ccc2c(CCC3CCN(Cc4ccccc4)CC3)noc2c1 [Example 41, 3-(2-(1-Benzyl-4-piperidyl)ethyl)-6-(N-methylacetamino)-1,2-benzisoxazole] | 4.6 | 3,700 |  | LD50 [5]: ≥ 50 mg/kg; IC50 [3, 9]: 17000 nM
10 | CNC(=O)Oc1cccc(CN2CCC(CCc3noc4c(OC)c(OC)ccc34)CC2)c1 [Example 23, 3-(2-(1-(3-(N-methylcarbamoyloxy)benzyl)-4-piperidyl)ethyl)-6,7-dimethoxy-1,2-benzisoxazole] |  |  |  | IC50 [1]: 0.34 nM
11 | CC(=O)Nc1ccc2c(CCC3CCN(Cc4ccccc4)CC3)noc2c1 [Example 6, 6-acetylamino-3-(2-(1-benzyl-4-piperidyl)ethyl)-1,2-benzisoxazole] | 2.1 |  |  | LD50 [5]: ≥ 50 mg/kg; Selectivity IC₅₀ (BChE)/IC₅₀ (AChE) [2]: 4,500; IC50 [3]: 9500 nM
